± gives the expanded uncertainty stated by the source.
What was measured:
[1] = xn = mol fraction of the nth substance listed; details: 101 kPa, Liquid, Pycnometric method, x1 = 1
[2] = 101 kPa, Liquid, Pycnometric method

Compound	mass density ([1]; 293.15 K) [kg/m3]	mass density ([1]; 298.15 K) [kg/m3]	mass density ([1]; 303.15 K) [kg/m3]	mass density ([1]; 308.15 K) [kg/m3]	mass density ([1]; 313.15 K) [kg/m3]	mass density ([1]; 318.15 K) [kg/m3]	mass density ([2]; 293.15 K) [kg/m3]	mass density ([2]; 298.15 K) [kg/m3]	mass density ([2]; 303.15 K) [kg/m3]	mass density ([2]; 308.15 K) [kg/m3]	mass density ([2]; 313.15 K) [kg/m3]	mass density ([2]; 318.15 K) [kg/m3]
C1CCOC1 [tetrahydrofuran] + C=CC(=O)OCCCC	887.01 ± 1	882.05 ± 1	877.1 ± 1	872.14 ± 1	867.19 ± 1	862.23 ± 1						
C1CCOC1 [tetrahydrofuran] + C=CC(=O)OC	887.01 ± 1	882.05 ± 1	877.1 ± 1	872.14 ± 1	867.19 ± 1	862.23 ± 1						
C1CCOC1 [tetrahydrofuran] + C=CC(=O)OC(C)(C)C	887.01 ± 1	882.05 ± 1	877.1 ± 1	872.14 ± 1	867.19 ± 1	862.23 ± 1						
C1CCOC1 [tetrahydrofuran]							887.01 ± 1	882.05 ± 1	877.1 ± 1	872.14 ± 1	867.19 ± 1	862.23 ± 1
C1CCOC1 [tetrahydrofuran] + C=CC(=O)OCC	887.01 ± 1	882.05 ± 1	877.1 ± 1	872.14 ± 1	867.19 ± 1	862.23 ± 1						
C=CC(=O)OC(C)(C)C [tert-butyl acrylate]							884.13 ± 1	879.66 ± 1	875.2 ± 1	870.74 ± 1	866.28 ± 1	861.82 ± 1
